Assay: Surface tension of aqueous solutions (Du Noüy-Padday method, platinum rod probe)
Type: physicochemical
Conditions: for Minimum hydrotrope concentration (MHC) or critical micelle concentration (CMC) / surface tension of water (γsat): in water at 25° C.; for surface tension of water (γsat): saturation surface tension; for concentration necessary to lower the surface tension / surface tension reached at the stated concentration: water
Description: The term “surfactant” or “surface-active agent” denotes a compound that reduces surface tension when it is dissolved in water or in an aqueous medium, or that reduces the interfacial tension between two liquids, between a liquid and a solid or between a liquid and a gas. As a general rule, the surface-active properties of a compound may be measured by the plate method using a platinum rod as probe (Du Nouy-Padday method, as described in J F Padday, A R Pitt, R M Pashley, J. Chem. Soc. Faraday. Trans 1, 1975, 71, 1919-1931). The Du Nouy-Padday method is used for measuring the equilibrium of surface tension or of dynamic surface tension at the air/liquid interface.
Surface tension was measured at (25.0±0.1)° C. with a Krüss K100MK2 tensiometer using a platinum rod as probe. A total of 1.0 ml of water was added to the measuring vessel. When the surface tension is stable (standard deviation of the last five measurements of 0.2 mN/m), manual dilution is carried out with a concentrated solution of surfactant to its limit of solubility while maintaining constant volume.
In the present study, the general characteristics of the surfactants were evaluated by measuring the reduction in saturated surface tension (γsat) and the critical micelle concentration (CMC) of the mixture (3+4) previously obtained in water at 25° C. The surface-active properties were compared against those of the pure compounds.
The surface tension of aqueous solutions containing increasing concentrations of each of the compounds was measured by the Du Noüy-Padday method using a platinum rod as probe (method described in J. F. Padday, A. R. Pitt, R. M. Pashley, J. Chem. Soc. Faraday. Trans 1, 1975, 71, 1919-1931). The data are presented graphically in FIG. 1, showing analysis of the surface tension as a function of the concentration of the sorbitan ether derivatives ([…] (black diamonds), C12EthSorb (black lozenges), C5/C12EthSorb (black triangles)). The value of the critical micelle concentration (CMC) is shown with a small arrow for C5EthSorb.
The general characteristics of the surfactants were evaluated as in example 4 by measuring the reduction in saturated surface tension (γsat) and the critical micelle concentration (CMC) of the mixture (C5/C12 MeGlu) obtained previously in water at 25° C. The surface-active properties were compared with pure compounds.
The surface tension of aqueous solutions containing increasing concentrations of each of the compounds was measured by the plate method using a platinum rod as probe (Du Nouy-Padday method as described in J F Padday, A R Pitt, R M Pashley, J. Chem. Soc. Faraday. Trans 1, 1975, 71, 1919-1931). The data are shown in FIG. 2, showing analysis of the surface tension from the concentration of the ether derivatives of methyl glucoside (C5EthMeGlu (black star), C12EthMeGlu (black diamond), C5/C12EthMeGlu (black cross)).

[1] = ether derivatives of methyl glucoside

Substance | Minimum hydrotrope concentration (MHC) or critical micelle concentration (CMC) [1] | surface tension of water (γsat) [1] | Minimum hydrotrope concentration (MHC) or critical micelle concentration (CMC) (sorbitan ether derivatives) | surface tension of water (γsat) (sorbitan ether derivatives) | concentration necessary to lower the surface tension (sorbitan ethers, to lower the surface tension by 31 mN/m) | surface tension reached at the stated concentration (sorbitan ethers) | concentration necessary to lower the surface tension (methyl glucoside ethers) | surface tension reached at the stated concentration (methyl glucoside ethers)
(6+4)-O-dodecyl-α-D-methyl glucopyranoside [Product C12EthMeGlu] | 4.5 mg/L | 28 mN/m | – | – | – | – | – | –
(6+5+3−)-dodecyl sorbitan [Product C12EthSorb] | – | – | 30.2 mg/L | 31 mN/m | – | – | – | –
pentyl sorbitan [Product C5EthSorb] | – | – | 1779 mg/L | 32 mN/m | 1179 µg/mL | 31 mN/m | – | –
pentyl α-D-methyl glucopyranoside [Product C5EthMeGlu] | 8199 mg/L | 32 mN/m | – | – | – | – | 8199 µg/mL | 32 mN/m
